Measurements from patent US20240374879A1, “METHODS AND COMPOSITIONS TO REDUCE CELLULAR DEPOSITION, AND HYDROCEPHALUS SHUNT FAILURE” (Wayne State University, priority 2021, published 2024).

System: Human astrocyte cells
Assay: Multiplex ELISA of cytokine concentrations in astrocyte culture media
Assay type: cell-based
Conditions: for % Change of Cytokine Concentration IL-1α, GIT 27 vs DMSO treated vehicle / % Change of Cytokine Concentration IL-1β, GIT 27 vs DMSO treated vehicle / % Change of Cytokine Concentration IL-6, GIT 27 vs DMSO treated vehicle / % Change of Cytokine Concentration IL-8, GIT 27 vs DMSO treated vehicle / % Change of Cytokine Concentration IL-10, GIT 27 vs DMSO treated vehicle / % Change of Cytokine Concentration TNF-α, GIT 27 vs DMSO treated vehicle: GIT 27 1000 μg/mL
Method: Media Creation: A media stock solution was created by combining astrocyte media (ScienCell), supplement kit, 10 mL fetal bovine serum (FBS), 5 mL penicillin/streptomycin, and 5 mL astrocyte growth serum (ScienCell), and an additional 10 mL FBS (ScienCell). IL-1β and IL-10 were diluted to a concentration of 50,000 ng/mL and 100,000 ng/mL, respectively, in phosphate buffer solution (PBS, w/v). GIT 27 was dissolved in a dimethyl sulfoxide (DMSO) vehicle (Sigma-Aldrich) to a concentration of 20 mg/mL (w/v).
Media solutions for the different groups were made directly before each media change. Cytokines IL-1β or IL-10 were added to the media stock solution for a final concentration of 14.67 ng/mL. GIT 27 was added for a concentration of 1000 μg/mL in the media stock solution for our experimental group. […] Our vehicle group contained 50 μL/mL DMSO alone, which is proportional to the amount in the GIT 27 treated group. Concentrations were then made for evaluation of dose and time dependency (FIGS. 6A-6F).
Cell Culture: Human astrocyte cells were initially grown in T75 flasks with media changes every three days using basic astrocyte media and washed with Hanks Balanced Salt Solution without Calcium and Magnesium (Gibco). Once the flasks came to confluency, the cells were trypsinized using Trypsin-EDTA at 0.25% (Gibco) and seeded at a seeding density of 250,000 cells per well. These samples were broken up into three treatment groups: control, DMSO, and GIT 27 tested as a pre-treatment, simultaneous treatment, and post-treatment (FIGS. 6A-6F). Each group and treatment time were then either exposed to IL-1β or IL-10 separately at concentrations described for media creation.
ELISA: As previously published, the Bursky Center for Human Immunology & Immunotherapy Programs Immunomonitoring Laboratory at Washington University School of Medicine ran the multiplex assays according to the manufacturer's protocol (Khodadadei et al., bioRxiv 2021.11.04.467357, 2021. https://doi.org/10.1101/2021.11.04.467357). Samples of culture media analyzed were collected on days 1, 5, 7, 9, 12, and 14 of culture following seeding day. Each frozen supernatant media sample was rapidly thawed at 37° C. and centrifuged at 15,000 G for five minutes prior to incubating with the two-multiplex immunoassay for the following inflammatory cytokines: IL-1α, IL-1β, IL-6, TNF-α, IL-8, IL-10 (ThermoFisher Scientific), C3, and C1q (Millipore Sigma). Magnetic beads and assay buffer were added to all the wells of a 96 well-plate. Media samples and standards were then added in duplicate. The wells were thoroughly washed, and the detection antibody was then added followed by a streptavidin phycoerythrin incubation. Beads were resuspended with sheath fluid and 50 beads per region were acquired on a Luminex FLEXMAP3D system. The concentration of each analyte was then calculated by comparing the sample mean fluorescent intensity to the appropriate standard curve. Belysa v.1 software (Millipore Sigma) was used to generate a 5-parameter logistical curve fit algorithm. Protein concentration is reported as pg/mL for each analyte.
Statistical Analysis: Three conditions were tested in this experiment, treatment group, treatment time, and IL B or IL10 exposure, with a total of 16 different samples tested with an n=five of replicates. The three treatment groups tested were a control, vehicle control (DMSO), and GIT 27 (G27). Each treatment group was tested as a pre-treatment (denoted Pre-), dose simultaneous to treatment (denoted Sim-), and post-treatment (denoted Post-) as time points with respect to shunt insertion represented by exposure to either IL-1β (IL1B) or IL-10 (IL10). Utilizing the abbreviations described here we combined these to allow for an easier understand of the results presented. An example of this can be control Pre-IL1B, DMSO Pre-IL1B, and G27 Pre-IL1B which represents the three treatment groups when used as a pre-treatment to IL-1β exposure.

[1] = G27 Sim-IL1B compared to G27 Post-IL1B
[2] = G27 Sim-IL1B compared to G27 Pre-IL1B
[3] = G27 Sim-IL10 compared to both G27 Pre-IL10 and G27 Post-IL10
[4] = Post-IL10, vs control Post-IL10
[5] = Post-Treatment (C), exposed to IL-1β
[6] = Post-Treatment (C), exposed to IL-10
[7] = Pre-IL1B, vs DMSO Pre-IL1B (not vs control)
[8] = Pre-Treatment (A), exposed to IL-1β
[9] = Pre-Treatment (A), exposed to IL-10
[10] = Simultaneous Treatment (B), exposed to IL-1β
[11] = Simultaneous Treatment (B), exposed to IL-10

## O=C(O)CC1CC(c2ccccc2)=NO1 (centres unmarked) [GIT 27, 4,5-Dihydro-3-phenyl-5-isoxazoleacetic acid]
G27 Post-IL10 compared to G27 Sim-IL10
  IL-10 concentration by treatment time: significantly lower
G27 Pre-IL10 compared to G27 Sim-IL10 and G27 Post-IL10
  TNF-α concentration by treatment time: significantly higher
[1]
  IL-6 concentration by treatment time: significantly lower
  TNF-α concentration by treatment time: significantly lower
[2]
  IL-10 concentration by treatment time: lower
  TNF-α concentration by treatment time: lower
[3]
  IL-1α concentration by treatment time: significantly higher
  IL-1β concentration by treatment time: significantly higher
Post-IL1B
  IL-1α concentration compared to both control and DMSO: significantly lower
  IL-10 concentration compared to both control and DMSO: significantly lower
Post-IL1B, vs DMSO Post-IL1B
  IL-6 concentration compared to DMSO: significantly lower
  IL-8 concentration compared to DMSO: significantly lower
  TNF-α concentration compared to DMSO: significantly lower
Post-IL10
  IL-1α concentration compared to control and DMSO: significantly lower
  IL-6 concentration compared to control and DMSO: significantly lower
  IL-8 concentration compared to control and DMSO: significantly lower
Post-IL10, vs DMSO Post-IL10
  TNF-α concentration compared to DMSO: significantly lower
[4]
  IL-10 concentration compared to control: significantly lower
  TNF-α concentration compared to control: significantly lower
[5]
  % Change of Cytokine Concentration IL-1α, GIT 27 vs DMSO treated vehicle: −20.17%
  % Change of Cytokine Concentration IL-1β, GIT 27 vs DMSO treated vehicle: −16.52%
  % Change of Cytokine Concentration IL-6, GIT 27 vs DMSO treated vehicle: −28.57%
  % Change of Cytokine Concentration IL-8, GIT 27 vs DMSO treated vehicle: −57.49%
  % Change of Cytokine Concentration IL-10, GIT 27 vs DMSO treated vehicle: −33.02%
  % Change of Cytokine Concentration TNF-α, GIT 27 vs DMSO treated vehicle: −33.45%
[6]
  % Change of Cytokine Concentration IL-1α, GIT 27 vs DMSO treated vehicle: −85.58%
  % Change of Cytokine Concentration IL-1β, GIT 27 vs DMSO treated vehicle: 0.00%
  % Change of Cytokine Concentration IL-6, GIT 27 vs DMSO treated vehicle: −76.82%
  % Change of Cytokine Concentration IL-8, GIT 27 vs DMSO treated vehicle: −78.86%
  % Change of Cytokine Concentration IL-10, GIT 27 vs DMSO treated vehicle: −71.33%
  % Change of Cytokine Concentration TNF-α, GIT 27 vs DMSO treated vehicle: −80.45%
Pre-IL1B
  IL-1α concentration, difference between treatment groups: no significant difference
  IL-8 concentration, difference between treatment groups: no significant difference
  IL-10 concentration, difference between treatment groups: no significant difference
  TNF-α concentration, difference between treatment groups: no significant difference
[7]
  IL-1β concentration compared to DMSO: significantly lower
  IL-6 concentration compared to DMSO: significantly lower
Pre-IL10
  any of the cytokine concentrations, difference between treatment groups: no significant difference
[8]
  % Change of Cytokine Concentration IL-1α, GIT 27 vs DMSO treated vehicle: −30.49%
  % Change of Cytokine Concentration IL-1β, GIT 27 vs DMSO treated vehicle: −42.70%
  % Change of Cytokine Concentration IL-6, GIT 27 vs DMSO treated vehicle: −76.60%
  % Change of Cytokine Concentration IL-8, GIT 27 vs DMSO treated vehicle: −31.56%
  % Change of Cytokine Concentration IL-10, GIT 27 vs DMSO treated vehicle: 26908.58%
  % Change of Cytokine Concentration TNF-α, GIT 27 vs DMSO treated vehicle: −12.41%
[9]
  % Change of Cytokine Concentration IL-1α, GIT 27 vs DMSO treated vehicle: 11.34%
  % Change of Cytokine Concentration IL-1β, GIT 27 vs DMSO treated vehicle: 0.00%
  % Change of Cytokine Concentration IL-6, GIT 27 vs DMSO treated vehicle: 21.96%
  % Change of Cytokine Concentration IL-8, GIT 27 vs DMSO treated vehicle: −43.65%
  % Change of Cytokine Concentration IL-10, GIT 27 vs DMSO treated vehicle: −6.42%
  % Change of Cytokine Concentration TNF-α, GIT 27 vs DMSO treated vehicle: −13.92%
Sim-IL1B, vs control Sim-IL1B
  IL-1α concentration compared to control: significantly lower
  IL-1β concentration compared to control: significantly lower
  IL-10 concentration compared to control: significantly lower
  TNF-α concentration compared to control: significantly lower
Sim-IL10
  IL-1α concentration compared to DMSO and control: significantly decrease
  IL-8 concentration compared to DMSO and control: significantly decrease
  IL-10 concentration compared to both DMSO and control: significantly lower
  TNF-α concentration compared to control: significantly lowered
[10]
  % Change of Cytokine Concentration IL-1α, GIT 27 vs DMSO treated vehicle: −40.83%
  % Change of Cytokine Concentration IL-1β, GIT 27 vs DMSO treated vehicle: −8.24%
  % Change of Cytokine Concentration IL-6, GIT 27 vs DMSO treated vehicle: 31.97%
  % Change of Cytokine Concentration IL-8, GIT 27 vs DMSO treated vehicle: −34.82%
  % Change of Cytokine Concentration IL-10, GIT 27 vs DMSO treated vehicle: −31.11%
  % Change of Cytokine Concentration TNF-α, GIT 27 vs DMSO treated vehicle: −8.65%
[11]
  % Change of Cytokine Concentration IL-1α, GIT 27 vs DMSO treated vehicle: −66.52%
  % Change of Cytokine Concentration IL-1β, GIT 27 vs DMSO treated vehicle: −89.31%
  % Change of Cytokine Concentration IL-6, GIT 27 vs DMSO treated vehicle: −28.89%
  % Change of Cytokine Concentration IL-8, GIT 27 vs DMSO treated vehicle: −81.04%
  % Change of Cytokine Concentration IL-10, GIT 27 vs DMSO treated vehicle: −49.58%
  % Change of Cytokine Concentration TNF-α, GIT 27 vs DMSO treated vehicle: −53.95%
Any of the treatment groups
  IFN-γ concentration: no detectable concentration
